Experimental data: patent US9591978B2, “Methods and compositions for pre-screening patients for treatment with noribogaine” (DemeRX, Inc., priority 2014, dated 2017)
Entries after “also recorded” stand apart in the source; their conditions may differ.

How the values were obtained:
[1] = Pharmacokinetics of noribogaine in healthy volunteers (plasma, LCMSMS); conditions: for AUC0-216 / AUC0-∞ / Cmax / Tmax / t1/2 / CL/F: healthy male volunteers, fasted, n = 6, mean (SD); for mean AUC/24 hr / mean AUC/24: fasting conditions
[2] = system: healthy, drug-free male volunteers; experiment: Pupillometry (pupillary miosis) in healthy volunteers; assay type: in vivo, human
Description: (§1) Pulse oximetry and capnography data were collected continuously using a GE Carescape B650 monitoring system from 2 hours prior to dosing and until six hours after dosing, and thereafter at 12, 24, 48 and 72 hours post-dosing. […] Pupillary miosis was assessed by pupillometry.
Summary statistics (means, standard deviations, and coefficients of variation) were determined for each dose group for safety laboratory test data, ECG and pharmacokinetic parameters, and pharmacodynamic variables. Categorical variables were analysed using counts and percentages. Dose-proportionality of AUC and Cmax was assessed using linear regression. The effect of dose on pharmacodynamic parameter values over time was assessed using two-factor analysis of variance (ANOVA). Pairwise comparisons (with Tukey-Kramer adjustment) between each dose group to the placebo were conducted at each time point using the least squares estimates obtained from the ANOVA, using SAS Proc Mixed (SAS ver 6.0).

[3] = system: opioid-dependent participants; experiment: QT interval prolongation in opioid-dependent patients; assay type: in vivo, human
Description: Patients' QT intervals were evaluated at regular time points throughout the study.

[4] = system: opioid-dependent participants; experiment: Time to resumption of opioid substitution treatment (OST); assay type: in vivo, human; conditions: for therapeutic response: methadone addicted patients
[5] = system: opioid-dependent participants; experiment: Opiate withdrawal scales (COWS, SOWS, OOWS); assay type: in vivo, human; conditions: first six hours following dosing
Description: Patients were evaluated based on the Clinical Opiate Withdrawal Scale (COWS), Subjective Opiate Withdrawal Scale (SOWS), and Objective Opiate Withdrawal Scale (OOWS) scoring systems over the period of time between administration of noribogaine (or placebo) until resumption of OST. These scales are outlined in Guidelines for the Psychosocially Assisted Pharmacological Treatment of Opioid Dependence, World Health Organization, Geneva (2009), Annex 10, which is incorporated herein by reference in its entirety. The scales measure the intensity of withdrawal symptoms, based on clinical, subjective, and objective indicia.

[6] = system: healthy, drug-free male volunteers; experiment: Cold pressor test (analgesic effect) in healthy volunteers; assay type: in vivo, human
Description: Analgesic effect was assessed based on duration of hand immersion in ice water and on visual analog scale (VAS) pain scores upon hand removal from the water bath.
(§2) Safety and tolerability of noribogaine were tested in the group of volunteers from Example 1. […] Safety evaluations included clinical monitoring, recording of adverse events (AEs), safety laboratory tests, vital signs, ECG telemetry from −2 h to 6 h after dosing, and 12-lead electrocardiograms (ECGs) up to 216 hours post-dosing.

[7] = system: opioid-dependent participants; experiment: Treatment emergent adverse events in opioid-dependent participants
[8] = system: healthy, drug-free male volunteers; experiment: Safety and tolerability of noribogaine in healthy humans; assay type: in vivo, human
Description: as §1, §2

[9] = Pharmacokinetics in opioid-dependent patients (Phase IB study); conditions: 60-180 mg
[10] = 30 mg and 60 mg noribogaine dose groups
[11] = after adjusting for baseline, p>0.9
[12] = opioid-dependent participants, 60, 120, 180 mg
[13] = opioid-dependent patients, single 60 mg noribogaine dose, N = 6
[14] = opioid-dependent patients, single 120 mg noribogaine dose, N = 6
[15] = opioid-dependent patients, single 180 mg noribogaine dose, N = 6

CC[C@H]1C[C@@H]2C[C@H]3c4[nH]c5ccc(OC6OC(C(=O)O)C(O)C(O)C6O)cc5c4CCN(C2)[C@@H]13 (some centres unmarked) [Noribogaine glucuronide, noribogaine glucuronide]
mean half-life in plasma [1, 10]: 21 to 23 h | time by which detected in plasma of all subjects [1, 10]: ≤ 0.75 h | time of peak concentrations after noribogaine dosing [1, 10]: 3 to 4 h | proportion of Cmax and AUC relative to noribogaine ([1]; both dose groups (30 mg, 60 mg)): 3-4% | AUC0-216 ([1]; single oral 30 mg noribogaine): 25.7 (9.1) ng · hr/ml | AUC0-∞ ([1]; single oral 30 mg noribogaine): 25.8 (9.3) ng · hr/ml | Cmax ([1]; single oral 30 mg noribogaine): 1.8 (0.6) ng/ml | Tmax ([1]; single oral 30 mg noribogaine): 3.0 (0.6) hr | t1/2 ([1]; single oral 30 mg noribogaine): 20.6 (4.9) hr | AUC0-216 ([1]; single oral 60 mg noribogaine): 65.0 (21.5) ng · hr/ml | AUC0-∞ ([1]; single oral 60 mg noribogaine): 67.1 (21.9) ng · hr/ml | Cmax ([1]; single oral 60 mg noribogaine): 4.1 (1.2) ng/ml | Tmax ([1]; single oral 60 mg noribogaine): 3.8 (1.2) hr | t1/2 ([1]; single oral 60 mg noribogaine): 23.1 (3.0) hr

CC[C@H]1CC2C[C@H]3c4[nH]c5ccc(O)cc5c4CCN(C2)C13 [noribogaine]
pupil diameter, each dose group vs placebo by ANOVA [2, 11]: no statistically significant differences | pupillary constriction ([2]; healthy volunteers, 3-60 mg single oral dose): no evidence of pupillary constriction | CL/F ([1]; single oral 3 mg noribogaine): 41.4 (7.0) L/h | CL/F ([1]; single oral 10 mg noribogaine): 42.3 (12.0) L/h | CL/F ([1]; single oral 30 mg noribogaine): 46.9 (16.4) L/h | CL/F ([1]; single oral 60 mg noribogaine): 34.0 (11.4) L/h | dose-proportionality of Cmax and AUC ([1]; healthy volunteers, 3-60 mg): increased linearly with dose | time of peak concentrations after oral dosing ([1]; healthy volunteers, across 3-60 mg dose groups): 2 to 3 h | mean half-life estimates ([1]; healthy volunteers, across dose groups): 28 to 50 h | mean AUC/24 hr ([1]; single dose of 3 mg noribogaine free base): 3.1 ng/mL | mean AUC/24 hr ([1]; single dose of 10 mg noribogaine free base): 10.6 ng/mL | mean AUC/24 ([1]; single dose of 30 mg noribogaine free base): 29.2 ng/mL | mean AUC/24 ([1]; single dose of 60 mg noribogaine free base): 61 ng/mL | QT interval prolongation (ΔQTcl) versus dose and serum concentration ([3]; 60, 120, 180 mg, first 24 hours post administration): dose-dependent increase in QT interval prolongation | relation of QT interval prolongation to dose ([3]; doubling the dose gives about a doubling of the prolongation): linear pattern | QT interval in some patients ([3]; patients receiving 120 mg): greater than 500 ms | QT interval prolongation in some patients ([3]; patients receiving 120 mg): greater than 50 ms | average QT interval prolongation ([3]; patients receiving 120 mg): approximately 38 ms | time to resumption of opioid substitution therapy compared with 60 mg ([4]; 120 mg): significantly longer | time to resumption of OST compared with untreated patients or 60 mg noribogaine ([4]; 180 mg): still longer | therapeutic response ([4]; single 60 mg dosing): generally does not provide a meaningful therapeutic response | therapeutic response ([4]; single 120 mg dosing): generally provides a meaningful therapeutic response | average time to resumption of opioids ([4]; single 120 mg dose): greater than 20 hours | withdrawal symptoms (COWS, OOWS, SOWS) ([5]; 120 mg): generally experienced fewer withdrawal symptoms than the other patients | withdrawal symptoms compared with placebo (COWS, OOWS, SOWS) ([5]; 60, 120, 180 mg): Patients administered placebo generally experienced more withdrawal symptoms than patients who were administered noribogaine | VAS pain scores, each dose group vs placebo by ANOVA ([6]; after adjusting for baseline, p=0.17): no statistically significant differences | duration of hand immersion, each dose group vs placebo by ANOVA [6, 11]: no statistically significant differences | analgesic effect in the cold pressor test ([6]; healthy volunteers, 3-60 mg single oral dose, 1° C. water): no analgesic effect | headaches ([7]; 60 mg noribogaine treatment group): frequent | headaches ([7]; 120 mg dose group): attenuated | headaches ([7]; 180 mg dose group): attenuated | adverse effects observed [7, 12]: Few adverse effects | hallucinatory effects [7, 12]: no hallucinatory effects | Treatment emergent adverse events: Catheter Site Infection [7, 13]: 0 | Treatment emergent adverse events: Catheter Site Pain [7, 13]: 0 | Treatment emergent adverse events: Catheter Site Related Reaction [7, 13]: 0 | Treatment emergent adverse events: Cellulitis [7, 13]: 0 | Treatment emergent adverse events: Diarrhoea [7, 13]: 0 | Treatment emergent adverse events: Dry Mouth [7, 13]: 0 | Treatment emergent adverse events: Ear and Labyrinth Disorders [7, 13]: 0 | Treatment emergent adverse events: Epistaxis [7, 13]: 0 | Treatment emergent adverse events: Euphoric Mood [7, 13]: 0 | Treatment emergent adverse events: General Disorders and Administration Site Conditions [7, 13]: 0 | Treatment emergent adverse events: Hyperaesthesia [7, 13]: 0 | Treatment emergent adverse events: Infections and Infestations [7, 13]: 0 | Treatment emergent adverse events: Limb Discomfort [7, 13]: 0 | Treatment emergent adverse events: Malaise [7, 13]: 0 | Treatment emergent adverse events: Nausea [7, 13]: 0 | Treatment emergent adverse events: Oropharyngeal Pain [7, 13]: 0 | Treatment emergent adverse events: Pseudoparalysis [7, 13]: 0 | Treatment emergent adverse events: Respiratory, Thoracic and Mediastinal Disorders [7, 13]: 0 | Treatment emergent adverse events: Rhinorrhoea [7, 13]: 0 | Treatment emergent adverse events: Skin Discomfort [7, 13]: 0 | Treatment emergent adverse events: Skin Irritation [7, 13]: 0 | Treatment emergent adverse events: Skin and Subcutaneous Tissue Disorders [7, 13]: 0 | Treatment emergent adverse events: Somnoience [7, 13]: 0 | Treatment emergent adverse events: Tinnitus [7, 13]: 0 | Treatment emergent adverse events: Tremor [7, 13]: 0 | Treatment emergent adverse events: Urinary Tract Infection [7, 13]: 0 | Treatment emergent adverse events: Vomiting [7, 13]: 0 | Treatment emergent adverse events: Back Pain [7, 14]: 0 | Treatment emergent adverse events: Catheter Site Infection [7, 14]: 0 | Treatment emergent adverse events: Catheter Site Related Reaction [7, 14]: 0 | Treatment emergent adverse events: Depressed Mood [7, 14]: 0 | Treatment emergent adverse events: Dry Eye [7, 14]: 0 | Treatment emergent adverse events: Dyspepsia [7, 14]: 0 | Treatment emergent adverse events: Euphoric Mood [7, 14]: 0 | Treatment emergent adverse events: Limb Discomfort [7, 14]: 0 | Treatment emergent adverse events: Malaise [7, 14]: 0 | Treatment emergent adverse events: Musculoskeletal and Connective Tissue Disorders [7, 14]: 0 | Treatment emergent adverse events: Psychiatric Disorders [7, 14]: 0 | Treatment emergent adverse events: Somnoience [7, 14]: 0 | Treatment emergent adverse events: Urinary Tract Infection [7, 14]: 0 | Treatment emergent adverse events: Catheter Site Infection [7, 15]: 0 | Treatment emergent adverse events: Catheter Site Pain [7, 15]: 0 | Treatment emergent adverse events: Depressed Mood [7, 15]: 0 | Treatment emergent adverse events: Diarrhoea [7, 15]: 0 | Treatment emergent adverse events: Dry Eye [7, 15]: 0 | Treatment emergent adverse events: Dyspepsia [7, 15]: 0 | Treatment emergent adverse events: Ear and Labyrinth Disorders [7, 15]: 0 | Treatment emergent adverse events: Epistaxis [7, 15]: 0 | Treatment emergent adverse events: Euphoric Mood [7, 15]: 0 | Treatment emergent adverse events: Hyperaesthesia [7, 15]: 0 | Treatment emergent adverse events: Malaise [7, 15]: 0 | Treatment emergent adverse events: Oropharyngeal Pain [7, 15]: 0 | Treatment emergent adverse events: Pseudoparalysis [7, 15]: 0 | Treatment emergent adverse events: Psychiatric Disorders [7, 15]: 0 | Treatment emergent adverse events: Respiratory, Thoracic and Mediastinal Disorders [7, 15]: 0 | Treatment emergent adverse events: Rhinorrhoea [7, 15]: 0 | Treatment emergent adverse events: Skin Discomfort [7, 15]: 0 | Treatment emergent adverse events: Skin Irritation [7, 15]: 0 | Treatment emergent adverse events: Skin and Subcutaneous Tissue Disorders [7, 15]: 0 | Treatment emergent adverse events: Somnoience [7, 15]: 0 | Treatment emergent adverse events: Tinnitus [7, 15]: 0 | Treatment emergent adverse events: Tremor [7, 15]: 0 | adverse events reported ([8]; 3 mg dose group, by two subjects): five | adverse events reported ([8]; 10 mg dose group, single subject): one | adverse events reported ([8]; 30 mg dose group, single subject): one | intensity of adverse events ([8]; all adverse events of the study, all resolved prior to study completion): mild-moderate | Adverse events: Mild ([8]; healthy volunteers, 3 mg): Dizziness; also recorded: Epistaxis; also recorded: Headache; also recorded: Back pain | Adverse events: Moderate ([8]; healthy volunteers, 3 mg): Headache | Adverse events: Mild ([8]; healthy volunteers, 10 mg): Headache | Adverse events: Mild ([8]; healthy volunteers, 30 mg): Headache | oximetry, capnography, respiratory rate ([8]; healthy volunteers, 3-60 mg): no changes in oximetry or capnography, or changes in respiratory rate | vital signs and safety laboratory tests ([8]; healthy volunteers, 3-60 mg): no changes in vital signs or safety laboratory tests of note | QTcF values ([8]; healthy volunteers, at any time): ≤ 500 ms | increase in QTcF ([8]; one subject dosed with 10 mg, single increase at 24 hours post-dosing): > 60 ms | maximum serum concentration (Cmax) versus dose [9]: increased in a dose-dependent manner
